Common to all, as to type: biochemical
In assay [1] the target is T1, Horse liver alcohol dehydrogenase (ADH), E isoenzyme (Equus caballus, UniProt P00327, V208A). As to the kind of experiment: product inhibition against NAD+.
Assay [2] deals with T2, Horse liver alcohol dehydrogenase (ADH), E isoenzyme (Equus caballus, UniProt P00327). Nature of the assay: product inhibition against NAD+.
For assay [3], the target named is T2, Horse liver alcohol dehydrogenase (ADH), E isoenzyme. As to the kind of experiment: initial velocity and product inhibition kinetics.
For assay [4], the target named is T1, Horse liver alcohol dehydrogenase (ADH), E isoenzyme. Nature of the assay: X-ray crystal structure, […] Å.

T2 sequence (P00327 2-375): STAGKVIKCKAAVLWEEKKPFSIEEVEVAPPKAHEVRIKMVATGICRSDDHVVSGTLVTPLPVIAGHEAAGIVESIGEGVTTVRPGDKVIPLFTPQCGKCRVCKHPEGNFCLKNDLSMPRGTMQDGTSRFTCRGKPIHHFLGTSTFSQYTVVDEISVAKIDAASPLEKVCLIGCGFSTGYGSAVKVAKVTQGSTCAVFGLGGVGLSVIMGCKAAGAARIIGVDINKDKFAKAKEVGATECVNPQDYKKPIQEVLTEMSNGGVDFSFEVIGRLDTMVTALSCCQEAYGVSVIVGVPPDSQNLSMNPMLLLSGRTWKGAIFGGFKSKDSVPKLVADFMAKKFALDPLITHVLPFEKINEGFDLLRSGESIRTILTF
T1 sequence (P00327 2-375 V208A): as the sequence (P00327 2-375) above, with V207A counted along it

As for `NC(=O)C1=CN([C@@H]2O[C@H](COP(=O)(O)OP(=O)(O)OC[C@H]3O[C@@H](n4cnc5c(N)ncnc54)[C@H](O)[C@@H]3O)[C@@H](O)[C@H]2O)C=CC1` [NADH], the Ki in assay [1] came to 0.39 ± 0.01 µM; in assay [2], 0.31 ± 0.02 µM.

For the compound `NC(=O)c1ccc[n+]([C@@H]2O[C@H](COP(=O)([O-])OP(=O)(O)OC[C@H]3O[C@@H](n4cnc5c(N)ncnc54)[C@H](O)[C@@H]3O)[C@@H](O)[C@H]2O)c1` [NAD^+], the Ki in assay [3] was 20 ± 5 µM; in assay [4], 59 ± 5 µM.

In general, Ki refers to the dissociation constant of the complex between target and ligand, obtained from inhibition or displacement. A lower Ki goes with higher affinity.

(Values after PMC3969020 (Biochemistry, 2014).)
